Assay results as given in patent US20080279961A1, “TELOMERE TARGETING AGENTS AS STEM CELLS DIRECTED TREATMENTS” (priority 2007, published 2008).
“And” between values parts separate entries of the source, which are not always exact repeats. Equal entries are not always repeated. “Also recorded” adds a separate entry of the source.

Tests used:
MCF-7 cells = test: human tumor stem cell assay (HTCA)/clonogenic assay; type: cell-based
Description: (§1) In human tumor stem cell assay (HTCA)/clonogenic assay, single cell suspensions from in vivo studies above were washed in medium and passed through sieves and the resulting single cell suspensions seeded into soft agar (n=3 tumors per group) as described by us before (Fiebig et al., 2004). Single cell suspensions of cell lines were prepared by trypsinization from cells growing as monolayers on plastic. Briefly, 5,000 (HEK293T cells), 10,000 (PC3, MCF-7 and UXF1138L cells) or 50,000 (UXF1138L tumor tissue) vital cells were added to 0.2 ml Iscove's medium/20% fetal bovine serum/0.05% gentamycin containing 0.4% agar and plated on top of a base layer consisting of 0.2 ml medium with 0.75% agar. The next day, the agar layers were fed with Isocve's medium and cultures incubated at 37° C., 7% CO2 for approximately 11 days. Vital colonies were stained with 2-(4-iodophenyl)-3-(4-nitrophenyl)-5-phenyltetrazolium chloride (1 mg/ml) 24 hrs before evaluation, and colonies >70 μm were counted with an automated image analysis system (Omincon FAS IV, BIOSYS GmbH, Karben, Germany). Drug effect was assessed as growth inhibitory concentrations 50 and 70% (IC50, IC70). Methylcellulose was used to grow cord blood stem cells instead of soft agar. The seeding density was 20,000 cells/well. Stem cell growth factor supplemented and optimized methylcellulose (Methocult H4434) was purchased from Stem Cell Technologies (Vancouver, CA). Methylcellulose lacking growth factors was used as negative growth control. Statistical significance between treatment groups was evaluated by using the Student T-test.
(§2) The growth inhibitory activity of RHPS4 in human bulk tumor cells have been compared, by MTT assay, against RHPS4 activity in tumor cells grown as colonies in the clonogenic assay, also termed the human tumor stem cell assay (HTCA) (FIG. 2A-B). HEK293T human embryonic kidney cells grown in the HTCA, and cord blood cells cultured in methylcellulose were also treated with RHPS4 (FIG. 2C). The MTT assay is a 5 day proliferation test measuring effects on a morphologically heterogeneous, differentiated cell population (bulk cells), whereas the HTCA and methylcellulose assays are longer term (10-15 day) tests in which only a very small fraction of a bulk culture (˜0.1-1%) will grow as colonies. Cells growing anchorage-independently as colonies in a semi-solid matrix are considered to be pluripotent stem cells (Hamburger & Salmon, 1977; Locke et al., 2005; Fiebig et al. 2004). […] Similar observations were made with the breast cancer cell line MCF-7 (shown in FIG. 2B, HTCA IC50=0.04 microM; bulk cell IC50=2 microM).

PC3 cells = test: as above; type: cell-based; settings: PC3 colonies; read-out: IC50 colony growth in the HTCA
Description: as §1, §2

UXF1138L cells = test: as above; type: cell-based; settings: UXF1138L colonies; read-out: IC50 colony growth in the HTCA
Description: as §1, §2

UXF1138L xenografts = test: tumor growth inhibition of subcutaneous xenografts; type: in vivo, nude mice
UXF1138L tumor tissue = test: HTCA/clonogenic growth of in vivo treated xenograft tissue; set-up: species or system nude mice; settings: for HTCA growth [%]: control set 100%
Description: Upon termination of the experiment, which was when tumors reached a volume of 1.5 cm in diameter (day 28), RHPS4 treated tumor tissue and control tumors were excised, minced and digested using a mixture of collagenase (123 U/ml), DNase (375 U/ml), and hyaluronidase (290 U/ml) in RPMI 1640 medium at 37° C. for 3 hrs. All enzymes were purchased from Roche, Indianapolis Ind.). Primary cultures as well as clonogenic growth assays were prepared from the resulting single cell suspensions. Primary cultures were used for analysis of telomere length. In addition, RHPS4 treated tumors (5 mg/kg/d) and control were propagated into new animals for up to three times. The control mouse group was always derived from untreated tumor fragments, but from the same initial passage as were the RHPS4 treated tumors (FIG. 1B).
as §1

hTERT [1] = test: hTERT immunofluorescence staining in vitro; type: cell-based, human; settings: UXF1138L cells, 1 microM, 24 hrs
Description: During phosphorylated H2AX (gamma-H2AX) and hTERT immunofluorescence staining, approximately 75,000 UXF1138L cells/chamber were seeded onto 8 chamber glass slides (Costar) 24 hrs prior to RHPS4 treatment. After exposure to 1 μM RHPS4 for 1, 6, or 24 hours, cells were washed twice with PBS and air dried. Cells were fixed and permeabilized by immersion into ice-cold methanol/acetone (1:1; 3×1 min). Slides were blocked overnight at 4° C. with 5% BSA in PBS and washed with PBS (3×) before incubation (2 hrs) with anti-gamma-H2AX mouse monoclonal antibody (Upstate, Waltham, Mass.; 1:250 in PBS) or hTERT monoclonal antibody (NCL-L-hTERT Novacastra, Newcastle, UK; 1:40) respectively. Control cells were probed with mouse IgG (Santa Cruz Biotechnolog Inc., Santa Cruz, Calif.). Slides were washed 3× with PBS, before incubation with a goat anti-mouse FITC conjugated secondary antibody (Sigma; 1:100, 3 h). Following further PBS washes (3×), slides were incubated with 1:5000 DAPI (2 mg/ml; Sigma), washed 3× in PBS and mounted with Vectashield mounting media. Images were visualized as described above.

hTERT [2] = test: hTERT immunohistochemistry of xenograft tissue; type: in vivo, human; settings: RHPS4 treated UXF1138L xenograft
Description: Five-micrometer paraffin sections were cut, dewaxed, and antigen retrieval done in citrate buffer (pH 6.0) in the microwave for 30 minutes. Sections were then treated with methanol/3% hydrogen peroxide to remove endogenous peroxidase and blocked with 10% normal goat serum in PBS and stained. PBS was used as washing buffer. Cells were incubated overnight at 4° C. with a monoclonal anti-hTERT antibody (class IgG2a, kappa, Novacastra, Newcastle, UK) diluted 1:40 in PBS. Mouse immunoglobulin G2a isotype control (Santa Cruz) was used as negative control. hTERT-specific immunoperoxidase staining was developed using the DAKO Envision+ system (Envision 3,3V-diaminobenzidine Plus kit mouse, DAKO Cytomation). To enhance contrast, tissues were counterstained with hematoxylin. hTERT-specific staining intensity was documented using a Leica DM4000 microscope and digital camera. Sections were viewed and evaluated by two independent pathologists. Mean numbers of atypical mitoses were counted in control and treated tissues from 3 tumors (4 fields of 250 cells per tumor) for the 3 groups (Burger et al. 2005). Box plots were generated using SigmaPlot version 10 software and statistical significance between treatments calculated in SigmaPlot using the Student T-test.

COS(=O)(=O)[O-].Cc1cc2c3c([n+](C)c4ccc(F)cc4c3c1)-c1cc(F)ccc1N2C [RHPS4, 3,11-difluoro-6,8,13-trimethyl-8H-quino[4,3,2-kl]acridinium methosulfate]
activity in colonies (HTCA) versus whole cell populations (MCF-7 cells; MCF-7): two log-fold
IC50 (MCF-7 cells; MCF-7 colonies, read-out: IC50 colony growth in the HTCA): 40 nM
IC50 (PC3 cells): 30 nM
IC50 (UXF1138L cells): 20 nM
tumor growth inhibition, maximal extent compared to control (UXF1138L xenografts; Passage 3, day 28): 33%
day of optimal Test/Control (UXF1138L xenografts; Passage #1): (16) day
opt. Test/Control [%] (UXF1138L xenografts; Passage #1, median tumor volume, 5 mg/kg p.o.): 63%
day of optimal Test/Control (UXF1138L xenografts; Passage #2): (7) day
opt. Test/Control [%] (UXF1138L xenografts; Passage #2, median tumor volume, 5 mg/kg p.o.): 100%
opt. Test/Control [%] (UXF1138L xenografts; Passage #3, median tumor volume, 5 mg/kg p.o., 5 mg/kg): 67% and 67.7%
day of optimal Test/Control (UXF1138L xenografts; Passage #4): (16) day
opt. Test/Control [%] (UXF1138L xenografts; Passage #4, RHPS4 5 mg/kg p.o. twice weekly, Paclitaxel 20 mg/kg i.v.): 62%
antitumor response in words (UXF1138L xenografts; Passage #4 UXF1138L xenografts): only marginal growth inhibition
oral single agent activity (UXF1138L xenografts; any of the 4 passages): did not show oral single agent activity
inhibition of colony forming units in the same tumor tissues (UXF1138L tumor tissue; Passage 3): 54%±6.6
HTCA growth [%] (UXF1138L tumor tissue; Passage #1): 83 ± 2.3%
HTCA growth [%] (UXF1138L tumor tissue; Passage #2): 93 ± 2.3%
HTCA growth [%] (UXF1138L tumor tissue; Passage #3): 54.5 ± 6.6%
HTCA growth [%] (UXF1138L tumor tissue; Passage #4): 44 ± 6.4%
clonogenicity of RHPS4 treated tumor tissue in soft agar tumor stem cell assay (UXF1138L tumor tissue; passages 1-4): marked reduction in clonogenicity
nuclear hTERT expression in vitro (hTERT [1]): nuclear hTERT expression was attenuated; also recorded: nuclear hTERT signal is attenuated
nuclear hTERT expression in xenograft tissue (hTERT [2]): loss of strong nuclear hTERT expression
